# From patent publication US12084441B2, “Salts of a compound and the crystalline forms thereof” (priority 2017, dated 2024)
# Experiments:
# [1] = Rough solubility test of salt of Formula A in water; format: physicochemical; conditions: Purified Water, 19° C.; for solubility at 5 min: thermodynamic from solid
# Protocol: After each addition of water, the test tube was shaken for 5 minutes until the solid was dissolved completely. Then the rough solubility of the compound was calculated according to the weight of the compound weighed and the total amount of water added.
# [2] = Stability experiment of salt of Formula A (high temperature, high humidity, illumination; HPLC purity and X-ray powder diffraction); format: physicochemical; conditions: for Purity (%): HPLC; for Stability (chemical purity and crystalline form): high temperature, illumination or high humidity for 10 days
# Protocol: Determination method: the test samples of Form A-I, Form B-I, Form C-I, and Form C-Ill of salt of Formula A were placed on the culture dishes respectively, which were uncovered and placed in sealed clean containers. The containers were placed under a temperature of 60° C. for 10 days, under an illumination of 4500 lx±500 lx for 10 days, and under a temperature of 25° C. and a relative humidity of 92.5%±5% for 10 days respectively. Then sampled on the 5th day and the 10th day respectively. Investigated for the purity (using HPLC analysis) and crystalline form (using X-ray powder diffraction analysis) of the samples, and compared the investigation results. The experimental results of the salts and the crystalline forms thereof were shown in Table 1, Table 2, Table 3, and Table 4.9
# [3] = Solubility test of salt of Formula A (acetate, Form A-I) and its free base in different solvents; conditions: thermodynamic from solid
# Text: (§1) Then the excess solids were filtered out, and the clear filtrates were used to determine solubility.
# [4] = physchem; conditions: water, thermodynamic from solid, Solubility (mg/mL)
# Text: as §1
# [5] = High humidity (92.5% RH, 25° C.), 5 days, monomalate
# [6] = High humidity (92.5% RH, 25° C.), 10 days, monomalate
# [7] = High temperature (60° C.), 5 days, monomalate
# [8] = High temperature (60° C.), 10 days, monomalate
# [9] = Illumination (4500 Lx), 5 days, monomalate
# [10] = Illumination (4500 Lx), 10 days, monomalate
# [11] = High humidity (92.5% RH, 25° C.), 5 days, malate
# [12] = High humidity (92.5% RH, 25° C.), 10 days, malate
# [13] = High temperature (60° C.), 5 days, malate
# [14] = High temperature (60° C.), 10 days, malate
# [15] = Illumination (4500 Lx), 5 days, malate
# [16] = Illumination (4500 Lx), 10 days, malate
# [17] = 0 day, crystalline form by X-ray powder diffraction
# [18] = High humidity (92.5% RH, 25° C.), 5 days
# [19] = High humidity (92.5% RH, 25° C.), 5 days, X-ray powder diffraction
# [20] = High humidity (92.5% RH, 25° C.), 10 days
# [21] = High humidity (92.5% RH, 25° C.), 10 days, X-ray powder diffraction
# [22] = High temperature (60° C.), 5 days
# [23] = High temperature (60° C.), 5 days, X-ray powder diffraction
# [24] = High temperature (60° C.), 10 days
# [25] = High temperature (60° C.), 10 days, X-ray powder diffraction
# [26] = Illumination (4500 Lx), 5 days, X-ray powder diffraction
# [27] = Illumination (4500 Lx), 10 days
# [28] = Illumination (4500 Lx), 10 days, X-ray powder diffraction
smiles,measurement,setting,value
"CS(=O)(=O)N1CCC(c2ccc(-c3cc4nccnc4c(NC[C@@H]4CNCCO4)n3)cc2)CC1.O=C(O)CC(O)C(=O)O [Form C-I, (S)-7-(4-(1-(methylsulfonyl)piperidin-4-yl)phenyl)-N-(morpholin-2-ylmethyl)pyrido[3,4-b]pyrazin-5-amine monomalate]",solubility at 5 min,[1],480 µg/mL
same,Purity (%),"[2]; 0 day, monomalate",99.71%
same,Form,"[2]; 0 day, crystalline form by X-ray powder diffraction, monomalate",C-I
same,Chiral Purity (%),"[2]; 0 day, monomalate",99.52%
same,Purity (%),[2]; [5],99.72%
same,Form,"[2]; High humidity (92.5% RH, 25° C.), 5 days, X-ray powder diffraction, monomalate",C-I
same,Chiral Purity (%),[2]; [5],99.53%
same,Purity (%),[2]; [6],99.68%
same,Form,"[2]; High humidity (92.5% RH, 25° C.), 10 days, X-ray powder diffraction, monomalate",C-I
same,Chiral Purity (%),[2]; [6],99.53%
same,Purity (%),[2]; [7],99.61%
same,Form,"[2]; High temperature (60° C.), 5 days, X-ray powder diffraction, monomalate",C-I
same,Chiral Purity (%),[2]; [7],99.52%
same,Purity (%),[2]; [8],99.63%
same,Form,"[2]; High temperature (60° C.), 10 days, X-ray powder diffraction, monomalate",C-I
same,Chiral Purity (%),[2]; [8],99.54%
same,Purity (%),[2]; [9],99.67%
same,Form,"[2]; Illumination (4500 Lx), 5 days, X-ray powder diffraction, monomalate",C-I
same,Chiral Purity (%),[2]; [9],99.51%
same,Purity (%),[2]; [10],99.61%
same,Form,"[2]; Illumination (4500 Lx), 10 days, X-ray powder diffraction, monomalate",C-I
same,Chiral Purity (%),[2]; [10],99.50%
same,Stability (chemical purity and crystalline form),[2],stable
"CS(=O)(=O)N1CCC(c2ccc(-c3cc4nccnc4c(NC[C@@H]4CNCCO4)n3)cc2)CC1.O=C(O)CC(O)C(=O)O [Form C-III, (S)-7-(4-(1-(methylsulfonyl)piperidin-4-yl)phenyl)-N-(morpholin-2-ylmethyl)pyrido[3,4-b]pyrazin-5-amine malate]",Purity (%),"[2]; 0 day, malate",99.75%
same,Form,"[2]; 0 day, crystalline form by X-ray powder diffraction, malate",C-III
same,Chiral Purity (%),"[2]; 0 day, malate",99.39%
same,Purity (%),[2]; [11],99.67%
same,Form,"[2]; High humidity (92.5% RH, 25° C.), 5 days, X-ray powder diffraction, malate",C-III
same,Chiral Purity (%),[2]; [11],99.39%
same,Purity (%),[2]; [12],99.69%
same,Form,"[2]; High humidity (92.5% RH, 25° C.), 10 days, X-ray powder diffraction, malate",C-III
same,Chiral Purity (%),[2]; [12],99.38%
same,Purity (%),[2]; [13],99.57%
same,Form,"[2]; High temperature (60° C.), 5 days, X-ray powder diffraction, malate",C-III
same,Chiral Purity (%),[2]; [13],99.40%
same,Purity (%),[2]; [14],99.70%
same,Form,"[2]; High temperature (60° C.), 10 days, X-ray powder diffraction, malate",C-III
same,Chiral Purity (%),[2]; [14],99.39%
same,Purity (%),[2]; [15],99.59%
same,Form,"[2]; Illumination (4500 Lx), 5 days, X-ray powder diffraction, malate",C-III
same,Chiral Purity (%),[2]; [15],99.37%
same,Purity (%),[2]; [16],99.65%
same,Form,"[2]; Illumination (4500 Lx), 10 days, X-ray powder diffraction, malate",C-III
same,Chiral Purity (%),[2]; [16],99.40%
"CS(=O)(=O)N1CCC(c2ccc(-c3cc4nccnc4c(NC[C@@H]4CNCCO4)n3)cc2)CC1.Cc1ccc(S(=O)(=O)O)cc1 [Form B-I, (S)-7-(4-(1-(methylsulfonyl)piperidin-4-yl)phenyl)-N-(morpholin-2-ylmethyl)pyrido[3,4-b]pyrazin-5-amine mono p-Tosylate]",Rough solubility,[1],650 µg/mL
same,Chiral Purity (%),[2]; 0 day,99.71%
same,Purity (%),[2]; 0 day,99.49%
same,Form,[2]; [17],B-I
same,Chiral Purity (%),[2]; [18],99.76%
same,Purity (%),[2]; [18],99.47%
same,Form,[2]; [19],B-I
same,Chiral Purity (%),[2]; [20],99.71%
same,Purity (%),[2]; [20],99.63%
same,Form,[2]; [21],B-I
same,Chiral Purity (%),[2]; [22],99.70%
same,Purity (%),[2]; [22],99.48%
same,Form,[2]; [23],B-I
same,Chiral Purity (%),[2]; [24],99.76%
same,Purity (%),[2]; [24],99.51%
same,Form,[2]; [25],B-I
same,Chiral Purity (%),"[2]; Illumination (4500 Lx), 5 days",99.76%
same,Purity (%),"[2]; Illumination (4500 Lx), 5 days",99.19%
same,Form,[2]; [26],B-I
same,Chiral Purity (%),[2]; [27],99.72%
same,Purity (%),[2]; [27],99.05%
same,Form,[2]; [28],B-I
"CS(=O)(=O)N1CCC(c2ccc(-c3cc4nccnc4c(NC[C@@H]4CNCCO4)n3)cc2)CC1 [Free base of Formula A, (S)-7-(4-(1-(methylsulfonyl)piperidin-4-yl)phenyl)-N-(morpholin-2-ylmethyl) pyrido[3,4-b]pyrazin-5-amine]",solubility at 4 h,"[3]; acetone, organic solvent or mixture",2120 µg/mL
same,solubility at 4 h,"[3]; ethanol, organic solvent or mixture",640 µg/mL
same,solubility at 4 h,"[3]; methanol, organic solvent or mixture",1580 µg/mL
same,solubility at 4 h,"[3]; purified water, 37 °C, water",2.5 µg/mL
same,solubility at 4 h,"[3]; purified water, water",2.4 µg/mL
same,solubility at 4 h,"[3]; tetrahydrofuran, organic solvent or mixture",10700 µg/mL
"CC(=O)O.CS(=O)(=O)N1CCC(c2ccc(-c3cc4nccnc4c(NC[C@@H]4CNCCO4)n3)cc2)CC1 [Form A-I, (S)-7-(4-(1-(methylsulfonyl)piperidin-4-yl)phenyl)-N-(morpholin-2-ylmethyl)pyrido[3,4-b]pyrazin-5-amine monoacetate]",solubility at 5 min,[1],14600 µg/mL
same,solubility at 4 h,[4]; 37 °C,26200 µg/mL
same,solubility at 4 h,[4],21800 µg/mL
same,Chiral Purity (%),[2]; 0 day,99.63%
same,Purity (%),[2]; 0 day,99.39%
same,Form,[2]; [17],A-I
same,Chiral Purity (%),[2]; [18],99.69%
same,Purity (%),[2]; [18],99.35%
same,Form,[2]; [19],A-I
same,Chiral Purity (%),[2]; [20],99.71%
same,Purity (%),[2]; [20],99.53%
same,Form,[2]; [21],A-I
same,Chiral Purity (%),[2]; [22],99.66%
same,Purity (%),[2]; [22],99.31%
same,Form,[2]; [23],A-I
same,Chiral Purity (%),[2]; [24],99.71%
same,Purity (%),[2]; [24],99.37%
same,Form,[2]; [25],A-I
same,Chiral Purity (%),"[2]; Illumination (4500 Lx), 5 days",99.69%
same,Purity (%),"[2]; Illumination (4500 Lx), 5 days",99.30%
same,Form,[2]; [26],A-I
same,Chiral Purity (%),[2]; [27],99.71%
same,Purity (%),[2]; [27],98.99%
same,Form,[2]; [28],A-I
same,Stability (chemical purity and crystalline form),[2],stable
